# Values of other authors in patent US20140287011A1, “ARTHROPOD PEST CONTROL COMPOSITION” (SUMITOMO CHEMICAL COMPANY, LIMITED, priority 2011, published 2014).
# Conditions: water at 20° C.
smiles,measurement,value
"CCOc1cc(C(C)(C)C)ccc1C1COC(c2c(F)cccc2F)=N1 (stereo not shown) [the present oxazole compound, 2-(2,6-difluorophenyl)-4-[4-(1,1-dimethylethyl)-2-ethoxyphenyl]-4,5-dihydrooxazole]",solubility,75.4 pg per 1 liter
